Test results reported in ChEMBL document CHEMBL5143682, “Design and synthesis of cinnamic acid triptolide ester derivatives as potent antitumor agents and their biological evaluation” (Bioorg Med Chem Lett, 2022).

Tested on: HepG2
Assay: Antiproliferative activity against human HepG2 cells assessed as reduction in cell viability measured after 48 hrs by CCK-8 assay
Assay type: functional, cell-based
Conditions: HepG2, 48 h

Row | SMILES | IC50 [nM]
1 | CCOP(=O)(OCC)Oc1ccc(/C=C/C(=O)O[C@@H]2[C@@]3(C(C)C)O[C@H]3[C@@H]3O[C@]34[C@]23O[C@H]3C[C@H]2C3=C(CC[C@@]24C)C(=O)OC3)cc1 | 578
2 | CC(C)[C@]12O[C@H]1[C@@H]1O[C@]13[C@]1(O[C@H]1C[C@H]1C4=C(CC[C@@]13C)C(=O)OC4)[C@@H]2OC(=O)/C=C/c1ccc(S(C)(=O)=O)cc1 | 564
3 | CC(C)[C@]12O[C@H]1[C@@H]1O[C@]13[C@]1(O[C@H]1C[C@H]1C4=C(CC[C@@]13C)C(=O)OC4)[C@@H]2OC(=O)/C=C/c1ccc([N+](=O)[O-])cc1 | 695
4 | COc1cc(/C=C/C(=O)O[C@@H]2[C@@]3(C(C)C)O[C@H]3[C@@H]3O[C@]34[C@]23O[C@H]3C[C@H]2C3=C(CC[C@@]24C)C(=O)OC3)cc([N+](=O)[O-])c1OC | 663
5 | CCOP(=O)(OCC)Oc1ccc(/C=C/C(=O)O[C@@H]2[C@@]3(C(C)C)O[C@H]3[C@@H]3O[C@]34[C@]23O[C@H]3C[C@H]2C3=C(CC[C@@]24C)C(=O)OC3)cc1OC | 355
6 | COc1ccc(/C=C/C(=O)O[C@@H]2[C@@]3(C(C)C)O[C@H]3[C@@H]3O[C@]34[C@]23O[C@H]3C[C@H]2C3=C(CC[C@@]24C)C(=O)OC3)cc1 | 654
7 | COc1cc(CCC(=O)O[C@@H]2[C@@]3(C(C)C)O[C@H]3[C@@H]3O[C@]34[C@]23O[C@H]3C[C@H]2C3=C(CC[C@@]24C)C(=O)OC3)ccc1O | 818
8 | CC(C)[C@]12O[C@H]1[C@@H]1O[C@]13[C@]1(O[C@H]1C[C@H]1C4=C(CC[C@@]13C)C(=O)OC4)[C@@H]2OC(=O)/C=C/c1cc(Br)ccc1F | 591
9 | COc1cc(/C=C/C(=O)O[C@@H]2[C@@]3(C(C)C)O[C@H]3[C@@H]3O[C@]34[C@]23O[C@H]3C[C@H]2C3=C(CC[C@@]24C)C(=O)OC3)ccc1OCc1ccccc1 | 1020
10 | CC(C)[C@]12O[C@H]1[C@@H]1O[C@]13[C@]1(O[C@H]1C[C@H]1C4=C(CC[C@@]13C)C(=O)OC4)[C@@H]2OC(=O)/C=C/c1ccc(N(C)C)cc1 | 696
11 | CC(C)[C@]12O[C@H]1[C@@H]1O[C@]13[C@]1(O[C@H]1C[C@H]1C4=C(CC[C@@]13C)C(=O)OC4)[C@@H]2OC(=O)/C=C/c1cccnc1 | 538
12 | CC(C)[C@]12O[C@H]1[C@@H]1O[C@]13[C@]1(O[C@H]1C[C@H]1C4=C(CC[C@@]13C)C(=O)OC4)[C@@H]2OC(=O)/C=C/c1ccc(F)cc1 | 439
13 | CC(C)[C@]12O[C@H]1[C@@H]1O[C@]13[C@]1(O[C@H]1C[C@H]1C4=C(CC[C@@]13C)C(=O)OC4)[C@@H]2OC(=O)/C=C/c1ccc(C#N)cc1 | 591
14 | CC(C)[C@]12O[C@H]1[C@@H]1O[C@]13[C@]1(O[C@H]1C[C@H]1C4=C(CC[C@@]13C)C(=O)OC4)[C@@H]2OC(=O)CCc1cccnc1 | 839
15 | COc1ccc(/C=C/C(=O)O[C@@H]2[C@@]3(C(C)C)O[C@H]3[C@@H]3O[C@]34[C@]23O[C@H]3C[C@H]2C3=C(CC[C@@]24C)C(=O)OC3)cc1OC | 686
16 | CC(C)[C@]12O[C@H]1[C@@H]1O[C@]13[C@]1(O[C@H]1C[C@H]1C4=C(CC[C@@]13C)C(=O)OC4)[C@@H]2OC(=O)/C=C/c1ccc(Br)cc1 | 838
17 | CC(C)[C@]12O[C@H]1[C@@H]1O[C@]13[C@]1(O[C@H]1C[C@H]1C4=C(CC[C@@]13C)C(=O)OC4)[C@@H]2OC(=O)/C=C/c1ccccc1 | 413
18 | CC(C)[C@]12O[C@H]1[C@@H]1O[C@]13[C@]1(O[C@H]1C[C@H]1C4=C(CC[C@@]13C)C(=O)OC4)[C@@H]2OC(=O)/C=C/c1ccccc1F | 381
19 | CCc1ccc(/C=C/C(=O)O[C@@H]2[C@@]3(C(C)C)O[C@H]3[C@@H]3O[C@]34[C@]23O[C@H]3C[C@H]2C3=C(CC[C@@]24C)C(=O)OC3)cc1 | 454
20 | CC(C)[C@]12O[C@H]1[C@@H]1O[C@]13[C@]1(O[C@H]1C[C@H]1C4=C(CC[C@@]13C)C(=O)OC4)[C@@H]2OC(=O)/C=C/c1ccc(N2CCCCC2)cc1 | 620
21 | COc1cc(/C=C/C(=O)O[C@@H]2[C@@]3(C(C)C)O[C@H]3[C@@H]3O[C@]34[C@]23O[C@H]3C[C@H]2C3=C(CC[C@@]24C)C(=O)OC3)cc(OC)c1OC | 689
22 | CC(C)[C@]12O[C@H]1[C@@H]1O[C@]13[C@]1(O[C@H]1C[C@H]1C4=C(CC[C@@]13C)C(=O)OC4)[C@@H]2OC(=O)/C=C/c1ccccc1N1CCCCC1 | 1720
23 | CC(C)[C@]12O[C@H]1[C@@H]1O[C@]13[C@]1(O[C@H]1C[C@H]1C4=C(CC[C@@]13C)C(=O)OC4)[C@@H]2OC(=O)/C=C/c1ccc(N2CCOCC2)cc1 | 783
24 | CC(C)[C@]12O[C@H]1[C@@H]1O[C@]13[C@]1(O[C@H]1C[C@H]1C4=C(CC[C@@]13C)C(=O)OC4)[C@@H]2OC(=O)/C=C/c1ccc(C(F)(F)F)cc1 | 899
25 | CC(C)[C@]12O[C@H]1[C@@H]1O[C@]13[C@]1(O[C@H]1C[C@H]1C4=C(CC[C@@]13C)C(=O)OC4)[C@@H]2O [TRIPTOLIDE] | 468
